Measurements from patent US8101596B2, “Loxapine analogs and methods of use thereof” (Hypnion Inc., priority 2004, dated 2012).

Columns and labels:
male Wistar rats = test: Sleep-wakefulness monitoring (SCORE-2000) in rats; assay type: in vivo, rat; settings: CT-18
Protocol: Food and water were available ad libitum.
Treatments were administered orally as a bolus.
A parallel group study design was employed.

[1] = system: monkey cryopreserved hepatocytes; test: Metabolism in monkey cryopreserved hepatocytes; assay type: in vitro ADME; settings: primate hepatocytes, 1 μM, in % (unit assumed)
Protocol: (§1) Metabolism of test articles in monkey and human cryopreserved hepatocytes was assayed as follows:
(§2) Sample is diluted with DMSO, to prepare 100 μM and 10 μM stocks. 0.1% formic acid in acetonitrile is prepared by the addition of 1 mL formic acid per 1 L acetonitrile (store RT for 3 months). 10 minute, 60 and 120 minute 96 well quenching plates are prepared with 150 μL acetonitrile+0.1% formic acid in each well. Store on ice or refrigerated.
(§3) Next, hepatocytes are thawed and 100 μL of cell suspension is placed into a microfuge tube with 100 μL 0.4% Trypan Blue solution and gently mix by inversion. A small amount of the stained cell suspension (approximately 15 μL) is placed into a clean hemacytometer with a coverslip. The hemacytometer is placed onto the stage of the microscope and the focus and power are adjusted until a single counting square fills the field. The number of cells in the four outside corner subdivided squares of the hemacytometer are counted. Viable cells are opalescent, round, and pale with a darker outline. Non-viable cells are dark, opaque blue.
(§4) 198 μL of hepatocytes are transferred to relevant wells on dosing plate.
(§5) Plates are preincubated for at least 15 min. Reactions are started 2 μL of appropriate test compound dilution from dosing plate. […]

[2] = system: human cryopreserved hepatocytes; test: Metabolism in human cryopreserved hepatocytes; assay type: in vitro ADME; settings: 1 μM, in % (unit assumed)
Protocol: as §1, §2, §3, §4, §5

H1 histamine receptor = target: T1, H1 histamine receptor (Bos taurus, UniProt P30546); settings: reference compounds; read-out: Ki of reference compounds in H1 binding assay (unit inferred); cited from earlier work
T1 construct: the receptors were obtained from bovine cerebellar membrane tissue; from tissue; host or cells: bovine cerebellar membranes
T1 sequence (P30546 whole entry): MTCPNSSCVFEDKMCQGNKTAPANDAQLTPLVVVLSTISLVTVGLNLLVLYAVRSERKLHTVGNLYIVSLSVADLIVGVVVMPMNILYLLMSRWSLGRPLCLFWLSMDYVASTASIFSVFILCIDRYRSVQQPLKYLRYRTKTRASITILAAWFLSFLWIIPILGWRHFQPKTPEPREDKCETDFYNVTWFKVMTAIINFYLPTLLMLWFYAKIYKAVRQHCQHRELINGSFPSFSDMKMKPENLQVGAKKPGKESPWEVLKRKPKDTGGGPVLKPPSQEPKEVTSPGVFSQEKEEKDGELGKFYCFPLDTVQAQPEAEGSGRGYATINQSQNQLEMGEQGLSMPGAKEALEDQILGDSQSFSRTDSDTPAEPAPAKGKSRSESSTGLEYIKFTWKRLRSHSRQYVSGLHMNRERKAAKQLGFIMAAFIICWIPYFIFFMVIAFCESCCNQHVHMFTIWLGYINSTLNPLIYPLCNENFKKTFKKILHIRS

[3] = target: T2, human recombinant M2 expressed in CHO cells (Homo sapiens, UniProt P08172); test: M2 muscarinic receptor binding assay
T2 construct: purchased PerkinElmer, Inc., Wellesley, Mass; host or cells: CHO cells
T2 sequence (P08172 1-466): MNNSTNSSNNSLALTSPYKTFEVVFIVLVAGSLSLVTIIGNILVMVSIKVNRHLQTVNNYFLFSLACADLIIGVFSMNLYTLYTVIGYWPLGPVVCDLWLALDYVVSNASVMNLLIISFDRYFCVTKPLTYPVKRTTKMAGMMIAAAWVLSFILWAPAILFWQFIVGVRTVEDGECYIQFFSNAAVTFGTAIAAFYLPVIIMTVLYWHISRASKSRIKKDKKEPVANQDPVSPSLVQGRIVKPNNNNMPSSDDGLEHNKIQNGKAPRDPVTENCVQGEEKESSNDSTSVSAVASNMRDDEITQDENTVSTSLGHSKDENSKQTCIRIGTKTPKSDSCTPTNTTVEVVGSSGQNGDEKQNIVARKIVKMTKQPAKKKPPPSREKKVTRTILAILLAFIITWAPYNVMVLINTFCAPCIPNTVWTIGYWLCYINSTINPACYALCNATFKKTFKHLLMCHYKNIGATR

[4] = target: T3, human recombinant M3 expressed in CHO cells (Homo sapiens, UniProt P20309); test: M3 muscarinic receptor binding assay
T3 construct: purchased PerkinElmer, Inc., Wellesley, Mass; host or cells: CHO cells
T3 sequence (P20309 whole entry): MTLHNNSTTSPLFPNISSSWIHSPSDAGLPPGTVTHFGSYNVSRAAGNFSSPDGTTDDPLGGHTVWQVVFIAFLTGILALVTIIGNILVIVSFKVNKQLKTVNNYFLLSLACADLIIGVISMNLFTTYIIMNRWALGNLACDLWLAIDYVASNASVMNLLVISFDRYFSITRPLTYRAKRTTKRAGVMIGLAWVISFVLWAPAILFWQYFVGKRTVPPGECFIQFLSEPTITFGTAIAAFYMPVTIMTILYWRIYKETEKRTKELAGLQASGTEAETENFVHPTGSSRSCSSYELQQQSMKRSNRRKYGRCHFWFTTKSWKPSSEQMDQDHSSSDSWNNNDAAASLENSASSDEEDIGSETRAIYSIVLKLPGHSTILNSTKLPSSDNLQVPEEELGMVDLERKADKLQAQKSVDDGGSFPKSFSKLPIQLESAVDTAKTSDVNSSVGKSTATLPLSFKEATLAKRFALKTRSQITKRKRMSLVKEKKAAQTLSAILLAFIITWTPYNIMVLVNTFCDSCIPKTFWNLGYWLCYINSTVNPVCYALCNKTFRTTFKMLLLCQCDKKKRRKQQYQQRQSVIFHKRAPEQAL

[5] = target: T4, human recombinant M1 expressed in CHO cells (Homo sapiens, UniProt P11229); test: M1 muscarinic receptor binding assay
T4 construct: purchased PerkinElmer, Inc., Wellesley, Mass; host or cells: CHO cells
T4 sequence (P11229 1-460): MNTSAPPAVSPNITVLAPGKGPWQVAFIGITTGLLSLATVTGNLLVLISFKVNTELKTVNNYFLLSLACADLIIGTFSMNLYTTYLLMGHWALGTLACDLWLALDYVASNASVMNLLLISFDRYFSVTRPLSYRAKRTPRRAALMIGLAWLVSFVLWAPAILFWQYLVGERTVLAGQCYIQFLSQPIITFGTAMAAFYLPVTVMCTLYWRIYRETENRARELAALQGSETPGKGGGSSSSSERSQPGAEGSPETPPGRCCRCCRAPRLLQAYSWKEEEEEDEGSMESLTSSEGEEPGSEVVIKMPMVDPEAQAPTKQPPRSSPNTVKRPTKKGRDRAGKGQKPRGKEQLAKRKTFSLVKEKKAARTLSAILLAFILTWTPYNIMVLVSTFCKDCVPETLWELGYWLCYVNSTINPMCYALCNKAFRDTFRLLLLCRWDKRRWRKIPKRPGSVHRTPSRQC

| SMILES | LUSB (longest uninterrupted sleep bout) (male Wistar rats; 10 mg/kg oral) [min] | further results |
| --- | --- | --- |
| COc1ccc2c(c1)C(N1CCN(CC(C)(C)C(=O)O)CC1)=Nc1cc(Br)ccc1O2 [Compound 51] | 10.1 ± 3.6 | – |
| COc1ccc2c(c1)N=C(N1CCN(CC(C)(C)C(=O)O)CC1)c1cc(C)ccc1O2 [Compound 56] | 11.7 ± 2.3 | – |
| CC(C)(CN1CCN(C2=Nc3cc(Br)ccc3Oc3ccccc32)CC1)C(=O)O [Compound 17] | 5.0 ± 2.0 | – |
| Cc1ccc2c(c1)N=C(N1CCN(CC(C)(C)C(=O)O)CC1)c1ccccc1O2 [Compound 19] | 11.7 ± 4.0 | LUSB (longest uninterrupted sleep bout) (male Wistar rats; 3 mg/kg oral): 18.6 ± 3.3 min |
| CC(C)(CN1CCN(C2=Nc3ccccc3Oc3ccc(Cl)cc32)CC1)C(=O)O [Compound 5] | 8.7 ± 3.3 | remaining 120 minutes after treatment [1]: 75.105; remaining 120 minutes after treatment [2]: 90.405; LUSB (longest uninterrupted sleep bout) (male Wistar rats; 3 mg/kg oral): 13.5 ± 4.0 min |
| Cc1ccc2c(c1)N=C(N1CCN(CC(C)(C)C(=O)O)CC1)c1cc(C)ccc1O2 [Compound 20] | 4.7 ± 2.3 | – |
| CC(C)(CN1CCN(C2=Nc3ccccc3Oc3ccc(Br)cc32)CC1)C(=O)O [Compound 8] | 16.7 ± 3.0 | – |
| CN(C)CCCSC(=N)N [dimaprit] | – | Ki (H1 histamine receptor): > 110 µM |
| COc1ccc2c(c1)C(N1CCN(CC(C)(C)C(=O)O)CC1)=Nc1ccccc1O2 [Compound 12] | 18.1 ± 2.1 | LUSB (longest uninterrupted sleep bout) (male Wistar rats; 1 mg/kg oral): 7.7 ± 3.2 min; LUSB (longest uninterrupted sleep bout) (male Wistar rats; 3 mg/kg oral): 8.3 ± 3.0 min |
| Cc1ccc2c(c1)C(N1CCN(CC(C)(C)C(=O)O)CC1)=Nc1cc(Br)ccc1O2 [Compound 50] | 3.4 ± 2.6 | – |
| CC(C)(CN1CCN(C2=Nc3ccccc3Oc3ccccc32)CC1)C(=O)NS(C)(=O)=O [Compound 40] | 7.6 ± 4.2 | LUSB (longest uninterrupted sleep bout) (male Wistar rats; 30 mg/kg oral): 16.4 ± 2.9 min |
| Cc1ccc2c(c1)Oc1ccccc1N=C2N1CCN(CC(C)(C)C(=O)O)CC1 [Compound 46] | 11.1 ± 3.7 | LUSB (longest uninterrupted sleep bout) (male Wistar rats; 1 mg/kg oral): 4.1 ± 1.6 min; LUSB (longest uninterrupted sleep bout) (male Wistar rats; 3 mg/kg oral): 17 ± 4.4 min |
| CC(C)(CN1CCN(C2=Nc3ccccc3Oc3ccccc32)CC1)C(=O)O [Compound 1] | 19.7 ± 6.7 | LUSB (longest uninterrupted sleep bout) (male Wistar rats; 1 mg/kg oral): 6.0 ± 2.3 min; LUSB (longest uninterrupted sleep bout) (male Wistar rats; 3 mg/kg oral): 18.8 ± 3.0 min |
| COc1ccc2c(c1)N=C(N1CCN(CC(C)(C)C(=O)O)CC1)c1ccc(OC)cc1O2 [Compound 42] | 4.8 ± 2.7 | – |
| Cc1ccc2c(c1)N=C(N1CCN(CC(C)(C)C(=O)O)CC1)c1ccc(C)cc1O2 [Compound 52] | 15.9 ± 2.3 | – |
| CC(C)(CCN1CCN(C2=Nc3ccccc3Oc3ccc(Cl)cc32)CC1)C(=O)O [Compound 6] | – | Ki [3]: > 10 µM; Ki [4]: > 10 µM; Ki [5]: > 10 µM |
| COc1ccc2c(c1)C(N1CCN(CC(C)(C)C(=O)O)CC1)=Nc1cc(C)ccc1O2 [Compound 54] | 11.1 ± 2.9 | – |
